{"source": "ChEMBL document CHEMBL4052632", "about": "(Eur J Med Chem, 2017)", "key": {"[1]": {"molecular_target": "Cyclin-dependent kinase 1/cyclin B1 (Homo sapiens) (UniProt P06493+P14635)", "assay": "Inhibition of recombinant human CDK1/CyclinB using Ulight-CFFKNIVTPRTPPPSQGK-amide as substrate at 100 uM after 15 mins in presence of ATP relative to control", "assay_type": "protein-complex assay"}, "[2]": {"molecular_target": "Serine/threonine-protein kinase Chk1 (Homo sapiens) (UniProt O14757)", "assay": "Inhibition of recombinant human CHK1 using CREBtide as substrate at 100 uM after 30 mins in presence of ATP relative to control"}, "[3]": {"molecular_target": "ALK tyrosine kinase receptor (Homo sapiens) (UniProt Q9UM73)", "assay": "Inhibition of ALK (unknown origin) using poly (Glu, Tyr) 4:1 as substrate at 100 uM after 1 hr by ELISA relative to control"}, "Mus musculus": {"tested_on": "Mus musculus", "assay": "Toxicity in nude BALB/c mouse xenografted with human A2780 cells assessed as body weight loss at 30 mg/kg, ip administered once every 2 days for 14 consecutive days relative to control", "assay_type": "organism-based", "conditions": "in vivo, 48 h"}, "Homo sapiens [4]": {"species_on_record": "Homo sapiens", "assay": "Inhibition of human PKA at 100 uM in presence of ATP relative to control"}, "[5]": {"molecular_target": "Cyclin-dependent kinase 2/cyclin E1 (Homo sapiens) (UniProt P24864+P24941)", "assay": "Inhibition of recombinant human CDK2/CyclinE using Ulight-CFFKNIVTPRTPPPSQGK-amide as substrate at 100 uM after 30 mins in presence of ATP relative to control", "assay_type": "protein-complex assay"}, "[6]": {"molecular_target": "5'-AMP-activated protein kinase catalytic subunit alpha-1 (Homo sapiens) (UniProt Q13131)", "assay": "Inhibition of full length recombinant human AMPKalpha1 using AMARAASAAALARRR as substrate at 100 uM after 40 mins in presence of ATP relative to control"}, "A2780 [7]": {"tested_on": "A2780", "assay": "Induction of apoptosis in human A2780 cells after 24 hrs by annexin V/propidium iodide staining based flow cytometry", "assay_type": "functional, cell-based"}, "Homo sapiens [8]": {"species_on_record": "Homo sapiens", "assay": "Inhibition of recombinant human CK2 using Ulight-IkappaB-alpha as substrate at 100 uM after 60 mins in presence of ATP relative to control"}, "[9]": {"molecular_target": "Hepatocyte growth factor receptor (Homo sapiens) (UniProt P08581)", "assay": "Inhibition of c-Met (unknown origin) using poly (Glu, Tyr) 4:1 as substrate at 100 uM after 1 hr by ELISA relative to control"}, "[10]": {"molecular_target": "Platelet-derived growth factor receptor alpha (Homo sapiens) (UniProt P16234)", "sequence (P16234 whole entry)": "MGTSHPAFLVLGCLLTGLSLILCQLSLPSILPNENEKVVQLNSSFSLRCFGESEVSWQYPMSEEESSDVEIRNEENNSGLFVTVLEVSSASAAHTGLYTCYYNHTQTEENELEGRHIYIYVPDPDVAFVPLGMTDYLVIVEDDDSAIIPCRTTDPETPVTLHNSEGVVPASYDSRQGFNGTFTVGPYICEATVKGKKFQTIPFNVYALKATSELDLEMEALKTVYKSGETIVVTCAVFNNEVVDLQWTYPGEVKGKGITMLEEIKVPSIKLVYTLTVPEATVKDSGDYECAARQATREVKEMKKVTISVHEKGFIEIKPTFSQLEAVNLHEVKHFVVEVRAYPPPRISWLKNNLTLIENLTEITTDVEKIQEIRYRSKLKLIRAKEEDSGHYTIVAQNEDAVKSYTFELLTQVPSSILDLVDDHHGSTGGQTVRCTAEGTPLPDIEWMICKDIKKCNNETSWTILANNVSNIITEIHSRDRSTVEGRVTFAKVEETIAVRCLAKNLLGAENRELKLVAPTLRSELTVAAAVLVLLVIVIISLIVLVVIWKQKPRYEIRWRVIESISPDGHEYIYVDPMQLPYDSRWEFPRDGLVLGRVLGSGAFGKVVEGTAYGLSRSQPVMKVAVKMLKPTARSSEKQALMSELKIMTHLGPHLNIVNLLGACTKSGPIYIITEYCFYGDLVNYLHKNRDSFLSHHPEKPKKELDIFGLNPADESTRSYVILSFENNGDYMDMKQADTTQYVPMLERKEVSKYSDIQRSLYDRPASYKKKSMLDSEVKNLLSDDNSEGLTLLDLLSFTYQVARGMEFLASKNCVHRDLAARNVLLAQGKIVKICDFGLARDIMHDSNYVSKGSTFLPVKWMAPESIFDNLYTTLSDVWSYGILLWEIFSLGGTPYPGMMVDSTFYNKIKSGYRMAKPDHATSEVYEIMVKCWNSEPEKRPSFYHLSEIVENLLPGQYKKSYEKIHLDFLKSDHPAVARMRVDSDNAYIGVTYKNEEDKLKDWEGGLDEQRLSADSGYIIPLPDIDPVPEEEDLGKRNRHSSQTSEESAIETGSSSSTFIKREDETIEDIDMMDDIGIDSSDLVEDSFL", "assay": "Inhibition of PDGFRalpha (unknown origin) using poly (Glu, Tyr) 4:1 as substrate at 100 uM after 1 hr by ELISA relative to control"}, "[11]": {"molecular_target": "Ephrin type-A receptor 2 (Homo sapiens) (UniProt P29317)", "assay": "Inhibition of EPH-A2 (unknown origin) using poly (Glu, Tyr) 4:1 as substrate at 100 uM after 1 hr by ELISA relative to control"}, "[12]": {"molecular_target": "RAC-alpha serine/threonine-protein kinase (Homo sapiens) (UniProt P31749)", "sequence (P31749 whole entry)": "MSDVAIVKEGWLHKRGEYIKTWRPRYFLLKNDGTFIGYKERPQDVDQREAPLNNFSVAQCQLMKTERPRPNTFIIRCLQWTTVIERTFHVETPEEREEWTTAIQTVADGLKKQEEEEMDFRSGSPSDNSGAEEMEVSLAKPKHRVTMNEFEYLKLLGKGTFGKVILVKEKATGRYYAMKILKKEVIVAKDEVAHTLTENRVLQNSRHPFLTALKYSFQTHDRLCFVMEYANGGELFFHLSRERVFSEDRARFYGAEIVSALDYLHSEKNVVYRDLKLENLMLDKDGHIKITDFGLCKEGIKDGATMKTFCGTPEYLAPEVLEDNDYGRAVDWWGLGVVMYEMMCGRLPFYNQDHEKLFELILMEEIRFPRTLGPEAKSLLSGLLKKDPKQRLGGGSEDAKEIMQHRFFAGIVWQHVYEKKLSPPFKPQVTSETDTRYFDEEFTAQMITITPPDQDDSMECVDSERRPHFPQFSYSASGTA", "assay": "Inhibition of recombinant human PKBalpha using CREBtide (CKRREILSRRPSYRK) as substrate at 100 uM after 60 mins in presence of ATP relative to control"}, "[13]": {"molecular_target": "Proto-oncogene tyrosine-protein kinase Src (Homo sapiens) (UniProt P12931)", "assay": "Inhibition of c-Src (unknown origin) using poly (Glu, Tyr) 4:1 as substrate at 100 uM after 1 hr by ELISA relative to control"}, "A2780 [14]": {"tested_on": "A2780", "assay": "Antitumor activity against human A2780 cells xenografted in BALB/c nude mouse assessed as tumor growth inhibition at 50 mg/kg, ip administered once every 2 days for 14 consecutive days relative to control", "assay_type": "functional", "conditions": "read-out: TGI"}, "[15]": {"molecular_target": "Vascular endothelial growth factor receptor 1 (Homo sapiens) (UniProt P17948)", "sequence (P17948 whole entry)": "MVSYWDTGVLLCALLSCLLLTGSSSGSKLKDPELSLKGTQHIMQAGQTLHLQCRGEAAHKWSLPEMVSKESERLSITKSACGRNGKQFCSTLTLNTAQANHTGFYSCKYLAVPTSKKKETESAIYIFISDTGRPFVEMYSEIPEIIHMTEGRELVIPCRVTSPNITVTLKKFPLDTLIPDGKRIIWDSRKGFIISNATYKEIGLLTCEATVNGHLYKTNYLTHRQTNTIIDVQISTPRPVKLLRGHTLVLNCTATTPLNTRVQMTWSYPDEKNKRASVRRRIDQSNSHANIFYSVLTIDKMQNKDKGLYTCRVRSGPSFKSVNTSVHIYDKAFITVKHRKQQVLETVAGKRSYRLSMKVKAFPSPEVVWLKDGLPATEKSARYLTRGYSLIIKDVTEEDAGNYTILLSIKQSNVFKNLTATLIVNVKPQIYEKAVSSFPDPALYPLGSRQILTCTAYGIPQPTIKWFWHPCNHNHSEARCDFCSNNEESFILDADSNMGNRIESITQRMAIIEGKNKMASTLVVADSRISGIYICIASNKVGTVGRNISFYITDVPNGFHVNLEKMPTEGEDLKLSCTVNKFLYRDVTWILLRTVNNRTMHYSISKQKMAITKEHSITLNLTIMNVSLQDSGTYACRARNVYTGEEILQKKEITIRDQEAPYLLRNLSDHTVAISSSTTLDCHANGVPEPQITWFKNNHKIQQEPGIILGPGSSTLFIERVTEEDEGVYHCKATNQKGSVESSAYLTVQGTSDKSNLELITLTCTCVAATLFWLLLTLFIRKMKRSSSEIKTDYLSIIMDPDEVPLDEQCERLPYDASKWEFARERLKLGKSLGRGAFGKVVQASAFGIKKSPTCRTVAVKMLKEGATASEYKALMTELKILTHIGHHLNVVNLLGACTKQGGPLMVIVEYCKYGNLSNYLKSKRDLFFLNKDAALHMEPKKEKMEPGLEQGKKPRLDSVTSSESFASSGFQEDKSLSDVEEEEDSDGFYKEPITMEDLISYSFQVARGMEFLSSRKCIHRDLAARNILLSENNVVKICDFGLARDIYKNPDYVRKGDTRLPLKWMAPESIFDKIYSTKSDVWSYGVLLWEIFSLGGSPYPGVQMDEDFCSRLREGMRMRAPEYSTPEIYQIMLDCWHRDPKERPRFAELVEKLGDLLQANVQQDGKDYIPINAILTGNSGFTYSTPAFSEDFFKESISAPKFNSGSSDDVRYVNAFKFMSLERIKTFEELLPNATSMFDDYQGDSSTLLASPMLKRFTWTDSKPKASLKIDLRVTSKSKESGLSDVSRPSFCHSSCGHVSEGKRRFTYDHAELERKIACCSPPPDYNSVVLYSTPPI", "assay": "Inhibition of VEGFR-1 (unknown origin) using poly (Glu, Tyr) 4:1 as substrate at 100 uM after 1 hr by ELISA relative to control"}, "A2780 [16]": {"tested_on": "A2780", "assay": "Antiproliferative activity against human A2780 cells measured after 48 hrs by MTT assay", "assay_type": "functional, cell-based", "conditions": "A2780, 48 h"}, "Saccharomyces cerevisiae": {"tested_on": "Saccharomyces cerevisiae", "assay": "Inhibition of yeast CK1 using poly (Glu, Tyr) 4:1 as substrate after 1 hr by ELISA relative to control", "conditions": "concentration not given here"}, "[17]": {"molecular_target": "Insulin-like growth factor 1 receptor (Homo sapiens) (UniProt P08069)", "sequence (P08069 31-736 limits assumed)": "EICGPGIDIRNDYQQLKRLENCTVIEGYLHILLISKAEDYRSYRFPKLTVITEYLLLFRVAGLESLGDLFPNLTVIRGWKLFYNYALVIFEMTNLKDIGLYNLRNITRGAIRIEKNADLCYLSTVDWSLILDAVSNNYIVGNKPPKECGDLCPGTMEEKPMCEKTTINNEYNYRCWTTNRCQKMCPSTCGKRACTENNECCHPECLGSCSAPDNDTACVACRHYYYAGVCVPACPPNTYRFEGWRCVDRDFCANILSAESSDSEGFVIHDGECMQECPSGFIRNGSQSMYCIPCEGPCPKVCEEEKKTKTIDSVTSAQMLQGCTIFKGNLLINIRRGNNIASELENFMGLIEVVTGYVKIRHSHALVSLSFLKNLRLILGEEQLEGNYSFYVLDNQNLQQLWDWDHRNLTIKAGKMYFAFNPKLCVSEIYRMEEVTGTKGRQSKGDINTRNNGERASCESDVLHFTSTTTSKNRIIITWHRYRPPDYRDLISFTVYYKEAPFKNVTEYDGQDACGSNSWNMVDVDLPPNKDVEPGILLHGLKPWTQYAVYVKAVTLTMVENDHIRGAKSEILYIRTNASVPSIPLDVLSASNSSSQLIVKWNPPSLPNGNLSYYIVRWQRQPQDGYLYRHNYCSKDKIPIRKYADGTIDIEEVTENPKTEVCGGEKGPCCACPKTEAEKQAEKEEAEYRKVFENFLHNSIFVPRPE", "sequence (P08069 741-1367 limits assumed)": "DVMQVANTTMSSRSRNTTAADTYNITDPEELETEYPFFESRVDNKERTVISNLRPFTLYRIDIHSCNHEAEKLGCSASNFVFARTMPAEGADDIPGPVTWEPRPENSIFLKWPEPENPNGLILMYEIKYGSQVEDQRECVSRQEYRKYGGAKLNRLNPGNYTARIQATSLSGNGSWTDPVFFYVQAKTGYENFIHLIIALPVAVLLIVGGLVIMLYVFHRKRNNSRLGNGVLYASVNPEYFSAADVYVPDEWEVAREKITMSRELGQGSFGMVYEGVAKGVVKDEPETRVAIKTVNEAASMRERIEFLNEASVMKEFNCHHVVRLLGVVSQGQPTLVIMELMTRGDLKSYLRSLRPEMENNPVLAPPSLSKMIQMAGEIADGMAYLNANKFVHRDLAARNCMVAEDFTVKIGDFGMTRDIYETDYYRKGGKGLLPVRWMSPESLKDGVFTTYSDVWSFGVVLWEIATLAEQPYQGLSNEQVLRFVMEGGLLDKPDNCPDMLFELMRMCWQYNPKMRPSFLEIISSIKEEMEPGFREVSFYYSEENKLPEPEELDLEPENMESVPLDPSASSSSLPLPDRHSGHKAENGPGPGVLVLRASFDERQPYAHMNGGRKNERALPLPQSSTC", "assay": "Inhibition of IGF1R (unknown origin) using poly (Glu, Tyr) 4:1 as substrate at 100 uM after 1 hr by ELISA relative to control"}, "[18]": {"molecular_target": "Receptor tyrosine-protein kinase erbB-2 (Homo sapiens) (UniProt P04626)", "assay": "Inhibition of ErbB2 (unknown origin) using poly (Glu, Tyr) 4:1 as substrate at 100 uM after 1 hr by ELISA relative to control"}, "cells": {"assay": "cells", "conditions": "Homo sapiens, OVCA433, 48 h", "description": "Antiproliferative activity against human OVCA433 cells measured after 48 hrs by MTT assay"}, "[19]": {"molecular_target": "Mitogen-activated protein kinase 13 (Homo sapiens) (UniProt O15264)", "assay": "Inhibition of recombinant human SAPK4 using Ulight-CFFKNIVTPRTPPPSQGK-amide as substrate at 100 uM after 15 mins in presence of ATP relative to control"}, "[20]": {"assay": "Toxicity in nude BALB/c mouse xenografted with human A2780 cells assessed as body weight loss at 50 mg/kg, ip administered once every 2 days for 14 consecutive days relative to control", "assay_type": "organism-based", "conditions": "in vivo, 48 h"}, "A2780 [21]": {"tested_on": "A2780", "assay": "Cell cycle arrest in human A2780 cells assessed as decrease in S phase after 48 hrs by propidium iodide staining based flow cytometry", "assay_type": "functional"}, "[22]": {"molecular_target": "Mitogen-activated protein kinase 12 (Homo sapiens) (UniProt P53778)", "sequence (P53778 whole entry)": "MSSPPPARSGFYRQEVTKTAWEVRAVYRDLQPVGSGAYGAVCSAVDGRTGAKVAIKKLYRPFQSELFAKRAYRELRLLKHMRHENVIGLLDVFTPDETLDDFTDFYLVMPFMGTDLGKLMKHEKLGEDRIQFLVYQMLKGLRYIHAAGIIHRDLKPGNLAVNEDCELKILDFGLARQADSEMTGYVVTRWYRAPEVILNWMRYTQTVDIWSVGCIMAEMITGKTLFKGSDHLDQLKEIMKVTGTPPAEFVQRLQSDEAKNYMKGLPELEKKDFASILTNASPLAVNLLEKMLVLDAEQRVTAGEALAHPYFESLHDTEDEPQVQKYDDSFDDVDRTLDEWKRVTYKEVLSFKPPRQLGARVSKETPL", "assay": "Inhibition of full length recombinant human SAPK3 at 100 uM in presence of ATP relative to control"}, "A2780 [23]": {"tested_on": "A2780", "assay": "Cell cycle arrest in human A2780 cells assessed as accumulation at G0/G1 phase at 5 to 15 uM after 48 hrs by propidium iodide staining based flow cytometry ( Rvb = 60%)", "assay_type": "functional"}, "[24]": {"molecular_target": "Glycogen synthase kinase-3 beta (Homo sapiens, UniProt P49841)", "sequence (P49841 whole entry)": "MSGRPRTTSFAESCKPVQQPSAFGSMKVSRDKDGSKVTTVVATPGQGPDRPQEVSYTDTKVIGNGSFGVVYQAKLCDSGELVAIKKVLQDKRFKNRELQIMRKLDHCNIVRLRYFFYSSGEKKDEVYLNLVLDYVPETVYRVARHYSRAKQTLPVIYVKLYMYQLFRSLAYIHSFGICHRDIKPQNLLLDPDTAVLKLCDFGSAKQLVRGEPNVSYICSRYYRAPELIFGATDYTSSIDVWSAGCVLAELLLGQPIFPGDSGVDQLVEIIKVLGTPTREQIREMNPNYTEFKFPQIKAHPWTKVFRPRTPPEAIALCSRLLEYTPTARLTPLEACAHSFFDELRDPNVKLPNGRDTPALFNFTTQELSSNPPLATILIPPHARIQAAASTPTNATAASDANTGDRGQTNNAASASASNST", "assay": "biochemical", "description": "Inhibition of recombinant N-terminal His6-tagged human GSK3beta H350L mutant expressed in baculovirus infected Sf21 insect cells using polypeptide GS-2 as substrate after 30 mins in presence of ATP by kinase-glo luminescence assay"}, "[25]": {"molecular_target": "Protein kinase C alpha type (Homo sapiens) (UniProt P17252)", "assay": "Inhibition of recombinant human PKCalpha using biotinyl-beta Abeta Abeta AKIQASFRGHMARKK as substrate at 100 uM after 10 mins in presence of ATP relative to control"}, "[26]": {"molecular_target": "Epidermal growth factor receptor (Homo sapiens) (UniProt P00533)", "assay": "Inhibition of EGFR (unknown origin) using poly (Glu, Tyr) 4:1 as substrate at 100 uM after 1 hr by ELISA relative to control"}, "[27]": {"molecular_target": "Receptor tyrosine-protein kinase erbB-4 (Homo sapiens) (UniProt Q15303)", "assay": "Inhibition of ErbB4 (unknown origin) using poly (Glu, Tyr) 4:1 as substrate at 100 uM after 1 hr by ELISA relative to control"}, "[28]": {"molecular_target": "Tyrosine-protein kinase receptor UFO (Homo sapiens) (UniProt P30530)", "assay": "Inhibition of AXL (unknown origin) using poly (Glu, Tyr) 4:1 as substrate at 100 uM after 1 hr by ELISA relative to control"}}}
{"smiles": "CCCCCCCCCCCCCCC(=O)NC1CCN(C(=O)C2Sc3ccccc3N(CC)C2=O)CC1", "note": "(stereo unspecified)", "values": [{"measurement": "inhibition", "setting": "[1]", "value": 7, "unit": "%"}, {"measurement": "inhibition", "setting": "[2]", "value": -8, "unit": "%"}, {"measurement": "inhibition", "setting": "[3]", "value": -1.7, "unit": "%"}, {"measurement": "Activity", "setting": "Mus musculus", "value": "Non-Toxic"}, {"measurement": "inhibition", "setting": "Homo sapiens [4]", "value": 36, "unit": "%"}, {"measurement": "inhibition", "setting": "[5]", "value": 39, "unit": "%"}, {"measurement": "inhibition", "setting": "[6]", "value": 34, "unit": "%"}, {"measurement": "Activity", "setting": "A2780 [7]", "value": "Dose-dependent effect"}, {"measurement": "inhibition", "setting": "Homo sapiens [8]", "value": 0, "unit": "%"}, {"measurement": "inhibition", "setting": "[9]", "value": -4.8, "unit": "%"}, {"measurement": "inhibition", "setting": "[10]", "value": 0, "unit": "%"}, {"measurement": "inhibition", "setting": "[11]", "value": 13, "unit": "%"}, {"measurement": "inhibition", "setting": "[12]", "value": 52, "unit": "%"}, {"measurement": "inhibition", "setting": "[13]", "value": 3.2, "unit": "%"}, {"measurement": "inhibition in vivo at 50 mg/kg", "setting": "A2780 [14]", "value": 41.3, "unit": "%"}, {"measurement": "inhibition", "setting": "[15]", "value": 6.8, "unit": "%"}, {"measurement": "IC50", "setting": "A2780 [16]", "value": 4.6, "unit": "µM"}, {"measurement": "inhibition", "setting": "Saccharomyces cerevisiae", "value": 14, "unit": "%"}, {"measurement": "inhibition", "setting": "[17]", "value": 5.1, "unit": "%"}, {"measurement": "inhibition", "setting": "[18]", "value": 0, "unit": "%"}, {"measurement": "IC50", "setting": "cells", "value": 8.3, "unit": "µM"}, {"measurement": "inhibition", "setting": "[19]", "value": 16, "unit": "%"}, {"measurement": "Activity", "setting": "[20]", "value": "Non-Toxic"}, {"measurement": "Activity", "setting": "A2780 [21]", "value": "Dose-dependent effect"}, {"measurement": "inhibition", "setting": "[22]", "value": 19, "unit": "%"}, {"measurement": "Activity", "setting": "A2780 [23]", "value": 77.1, "unit": "%"}, {"measurement": "IC50", "setting": "[24]", "value": 22.4, "unit": "µM"}, {"measurement": "inhibition", "setting": "[25]", "value": -7, "unit": "%"}, {"measurement": "inhibition", "setting": "[26]", "value": 0, "unit": "%"}, {"measurement": "inhibition", "setting": "[27]", "value": 34.3, "unit": "%"}, {"measurement": "inhibition", "setting": "[28]", "value": 33.8, "unit": "%"}]}
